The text below walks through data of PubChem BioAssay AID212 (DTP/NCI, 2004).

Values joined by “and” are separate entries in the source; they are usually repeats but may differ in a detail not shown here. Equal values may be shown once. Results filed as inconclusive are left out.

This assay deals with BDF1 mice, colon carcinoma 38 sc, T/C %. In words: NCI In Vivo Anticancer Drug Screen. Data for tumor model Colon Carcinoma 38 (subcutaneous) in B6D2F1 (BDF1) mice. The note with it: endpoint: median tumor weight (est.), higher = larger tumour. In outline:
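Compound antitumor activity was assessed in mice carrying transplantable tumors. Survival or tumor size was recorded, and each value is the treated-group measurement divided by that of the vehicle-treated control group.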

The mark [1] stands for this setting: dose: 12.5 mg/kg/injection, schedule: Q07DX002 (ip), vehicle: saline with Tween-80.
The mark [2] stands for this setting: dose: 200.0 mg/kg/injection, schedule: Q07DX002 (ip), vehicle: saline.
[3] abbreviates: dose: 50.0 mg/kg/injection, schedule: Q07DX002 (ip), vehicle: saline.

Take `O=c1[nH]c(=O)n([C@H]2CCCO2)cc1F`: the T/C is, setting by setting: (dose: 40.0 mg/kg/injection, schedule: Q07DX003 (ip), vehicle: Klucel (hydroxypropylcellulose) (HPC)) 166 % of control; (dose: 80.0 mg/kg/injection, schedule: Q07DX003 (ip), vehicle: Klucel (hydroxypropylcellulose) (HPC)) 116 % of control; (dose: 160.0 mg/kg/injection, schedule: Q07DX003 (ip), vehicle: Klucel (hydroxypropylcellulose) (HPC)) 57 % of control; (dose: 320.0 mg/kg/injection, schedule: Q07DX003 (ip), vehicle: Klucel (hydroxypropylcellulose) (HPC)) 25 % of control.
For `CC(=O)OCC1OC(n2ncc(=O)[nH]c2=O)C(OC(C)=O)C1OC(C)=O` (stereo not given), the T/C reads like this: (dose: 50.0 mg/kg/injection, schedule: Q07DX002 (ip), vehicle: suspension in saline) 100 % of control; (dose: 100.0 mg/kg/injection, schedule: Q07DX002 (ip), vehicle: suspension in saline) 95 % of control; (dose: 200.0 mg/kg/injection, schedule: Q07DX002 (ip), vehicle: suspension in saline) 52 % of control; (dose: 400.0 mg/kg/injection, schedule: Q07DX002 (ip), vehicle: suspension in saline) 66 % of control; (dose: 800.0 mg/kg/injection, schedule: Q07DX002 (ip), vehicle: suspension in saline) 64 % of control.
`CC1CCC(n2cnc3c(Cl)ncnc32)O1` (stereo not given): the T/C is 76 % of control (dose: 12.5 mg/kg/injection, schedule: Q07DX002 (ip), vehicle: Klucel (hydroxypropylcellulose) (HPC)); 78 % of control and 100 % of control (dose: 50.0 mg/kg/injection, schedule: Q07DX002 (ip), vehicle: Klucel (hydroxypropylcellulose) (HPC)); 87 % of control (dose: 62.0 mg/kg/injection, schedule: Q07DX002 (ip), vehicle: Klucel (hydroxypropylcellulose) (HPC)); 86 % of control and 95 % of control (dose: 100.0 mg/kg/injection, schedule: Q07DX002 (ip), vehicle: Klucel (hydroxypropylcellulose) (HPC)); 115 % of control (dose: 125.0 mg/kg/injection, schedule: Q07DX002 (ip), vehicle: Klucel (hydroxypropylcellulose) (HPC)); 109 % of control and 95 % of control (dose: 200.0 mg/kg/injection, schedule: Q07DX002 (ip), vehicle: Klucel (hydroxypropylcellulose) (HPC)). Further, the T/C (dose: 250.0 mg/kg/injection, schedule: Q07DX002 (ip), vehicle: Klucel (hydroxypropylcellulose) (HPC)) is 56 % of control.
As to `COCCCNC1=C(C#N)C(=O)NC(c2cccc([N+](=O)[O-])c2)S1` (stereo not given), the T/C was 97 % of control under setting [1]; 95 % of control (dose: 25.0 mg/kg/injection, schedule: Q07DX002 (ip), vehicle: saline with Tween-80); 108 % of control (dose: 50.0 mg/kg/injection, schedule: Q07DX002 (ip), vehicle: saline with Tween-80).
With `CC[C@@]1(O)C(=O)OCc2c1cc1n(c2=O)Cc2cc3cc(O)ccc3nc2-1`, the T/C is, setting by setting: (dose: 0.75 mg/kg/injection, schedule: Q07DX002 (ip), vehicle: saline) 92 % of control; (dose: 1.5 mg/kg/injection, schedule: Q07DX002 (ip), vehicle: saline) 92 % of control; (dose: 3.0 mg/kg/injection, schedule: Q07DX002 (ip), vehicle: saline) 91 % of control; (dose: 6.0 mg/kg/injection, schedule: Q07DX002 (ip), vehicle: saline) 67 % of control; (dose: 12.0 mg/kg/injection, schedule: Q07DX002 (ip), vehicle: saline) 81 % of control.
Turning to `O=C(O)CP(=O)(O)O`, the T/C by setting is: under setting [2], 115 % of control and 96 % of control; (dose: 800.0 mg/kg/injection, schedule: Q07DX002 (ip), vehicle: saline) 78 % of control and 80 % of control; (dose: 1600.0 mg/kg/injection, schedule: Q07DX002 (ip), vehicle: saline) 59 % of control.
Turning to `CS(C)=O`, the T/C by setting is: (dose: 1.5 grams/kg/injection, schedule: Q07DX003 (ip), vehicle: saline) 86 % of control; (dose: 6.0 grams/kg/injection, schedule: Q07DX003 (ip), vehicle: saline) 83 % of control and 103 % of control; (dose: 12.0 grams/kg/injection, schedule: Q07DX003 (ip), vehicle: saline) 171 % of control.
Regarding `C(CSC1=NCCN1)CSC1=NCCN1`, the T/C is, setting by setting: (dose: 25.0 mg/kg/injection, schedule: Q07DX002 (ip), vehicle: saline) 112 % of control; under setting [3], 96 % of control; under setting [2], 120 % of control.
With `Clc1ccc(C(c2ccc(Cl)cc2)C(Cl)(Cl)Cl)cc1`, the T/C (dose: 4.0 mg/kg/injection, schedule: Q07DX002 (ip), vehicle: Klucel (hydroxypropylcellulose) (HPC)) is 123 % of control; the T/C (dose: 8.0 mg/kg/injection, schedule: Q07DX002 (ip), vehicle: Klucel (hydroxypropylcellulose) (HPC)) was 94 % of control; the T/C (dose: 16.0 mg/kg/injection, schedule: Q07DX002 (ip), vehicle: Klucel (hydroxypropylcellulose) (HPC)) is 112 % of control; the T/C (dose: 32.0 mg/kg/injection, schedule: Q07DX002 (ip), vehicle: Klucel (hydroxypropylcellulose) (HPC)) was 122 % of control.
For `CCc1nc(N)nc(N)c1-c1ccc(Cl)c(N=[N+]=[N-])c1`, the T/C reads like this: (dose: 25.0 mg/kg/injection, schedule: Q07DX002 (ip), vehicle: distilled water + Tween-80) 82 % of control; (dose: 50.0 mg/kg/injection, schedule: Q07DX002 (ip), vehicle: distilled water + Tween-80) 98 % of control; (dose: 100.0 mg/kg/injection, schedule: Q07DX002 (ip), vehicle: distilled water + Tween-80) 97 % of control; (dose: 200.0 mg/kg/injection, schedule: Q07DX002 (ip), vehicle: distilled water + Tween-80) 88 % of control; (dose: 400.0 mg/kg/injection, schedule: Q07DX002 (ip), vehicle: distilled water + Tween-80) 106 % of control.
With `Cc1cn(C2CC(O)C(CO)O2)c(=O)[nH]c1=O` (stereo not given), the T/C runs as follows: (dose: 25.0 mg/kg/injection, schedule: Q07DX003 (ip), vehicle: saline) 54 % of control and 79 % of control; (dose: 50.0 mg/kg/injection, schedule: Q03HX024 (ip), vehicle: saline) 95 % of control; (dose: 50.0 mg/kg/injection, schedule: Q07DX003 (ip), vehicle: saline) 76 % of control; (dose: 100.0 mg/kg/injection, schedule: Q03HX024 (ip), vehicle: saline) 98 % of control; (dose: 200.0 mg/kg/injection, schedule: Q03HX024 (ip), vehicle: saline) 66 % of control; (dose: 200.0 mg/kg/injection, schedule: Q07DX003 (ip), vehicle: saline) 90 % of control. For the same compound, the T/C is 122 % of control (dose: 400.0 mg/kg/injection, schedule: Q03HX024 (ip), vehicle: saline); 89 % of control and 101 % of control (dose: 400.0 mg/kg/injection, schedule: Q07DX003 (ip), vehicle: saline).
Regarding `CN1CCN(c2ccc([N+](=O)[O-])c3no[n+]([O-])c23)CC1`, the T/C was 105 % of control (dose: 5.0 mg/kg/injection, schedule: Q07DX002 (ip), vehicle: saline with Tween-80); 77 % of control (dose: 20.0 mg/kg/injection, schedule: Q07DX002 (ip), vehicle: saline with Tween-80); 68 % of control (dose: 40.0 mg/kg/injection, schedule: Q07DX002 (ip), vehicle: saline with Tween-80).
Regarding `C(COCCOCC1CO1)OCCOCC1CO1` (stereo not given), the T/C is 88 % of control under setting [1]; 102 % of control (dose: 12.5 mg/kg/injection, schedule: Q07DX002 (ip), vehicle: saline); 158 % of control under setting [3]; 84 % of control (dose: 100.0 mg/kg/injection, schedule: Q07DX002 (ip), vehicle: saline); 113 % of control (dose: 200.0 mg/kg/injection, schedule: Q07DX002 (ip), vehicle: saline with Tween-80); 99 % of control (dose: 400.0 mg/kg/injection, schedule: Q07DX002 (ip), vehicle: saline with Tween-80). In addition, for the setting “dose: 400.0 mg/kg/injection, schedule: Q07DX002 (ip), vehicle: saline”, the T/C was 68 % of control.
Take `CCCCCC(=O)O[C@]1(C(C)=O)CC[C@H]2[C@@H]3CCC4=CC(=O)CC[C@]4(C)[C@H]3CC[C@@]21C`: the T/C (dose: 25.0 mg/kg/injection, schedule: Q07DX003 (ip), vehicle: Klucel (hydroxypropylcellulose) (HPC)) is 78 % of control; the T/C (dose: 50.0 mg/kg/injection, schedule: Q07DX003 (ip), vehicle: Klucel (hydroxypropylcellulose) (HPC)) was 62 % of control; the T/C (dose: 100.0 mg/kg/injection, schedule: Q07DX003 (ip), vehicle: Klucel (hydroxypropylcellulose) (HPC)) is 81 % of control; the T/C (dose: 200.0 mg/kg/injection, schedule: Q07DX003 (ip), vehicle: Klucel (hydroxypropylcellulose) (HPC)) is 82 % of control; the T/C (dose: 400.0 mg/kg/injection, schedule: Q07DX003 (ip), vehicle: Klucel (hydroxypropylcellulose) (HPC)) is 49 % of control.
